Data taken from patent publication US20220153746A1, “NITROGEN OXIDE-DONATING PDE-5 AND/OR PDE-6 INHIBITOR COMPOUNDS, AND USES THEREOF” (ILDONG PHARMACEUTICAL CO., LTD., priority 2020, published 2022).
Values joined by “and” are separate entries in the source; they are usually repeats but may differ in a detail not shown here. Equal entries are not always repeated.

Test: TD Phase (Groups 1 and 3): plasma and ocular tissue concentrations and pharmacokinetics of Compound 18 and its metabolite Compound 4 after once daily ocular instillation of Compound 18 nanosuspension for 7 days
Type: in vivo, New Zealand white rabbits
Conditions: for Compound 18 Lens Homogenate Conc.: homogenate dilution factor 5; for Compound 18 Iris/Ciliary Body Homogenate Conc. / Compound 18 Optic Nerve Homogenate Conc. / Compound 18 Retina Homogenate Conc. / Compound 18 Trahecular Meshwork Homogenate Conc.: homogenate dilution factor 20; for Cornea homogenate concentration: homogenate dilution factor 15
From the text: This example illustrates the procedures and results for the levels of Compound 18 and its metabolite Compound 4 in plasma and ocular tissues of normotensive rabbits following ocular instillation of Compound 18 once daily for 7 consecutive days.
Twenty five (25) male New Zealand white rabbits were divided into 5 groups of varying amounts of animals per group.
The Test article, Compound 18 was formulated as a 2% nanosuspension in DI water containing 0.2% PS80 (polyoxyethylenesorbitan, monooleate (Tween 80)) and 0.4% HPMC (hydroxypropylmethylcellulose) at pH 6.77. Referred to herein as “Compound 18 nanosuspension.”
The study consisted of three groups (Groups 1-3) of 19 male rabbits (NZW) that underwent once daily morning ocular installation (1 eyedrop) for 7 consecutive days (Day 0-6). Groups 4-5 each consisted of 3 male rabbits (NZW) that were not dosed.
Blood samples (1 mL) were collected from the jugular vein at the intervals set out below for each group. The samples were then inverted several times following collection and held on wet ice until centrifuged. Samples were centrifuged within 60 minutes of collection under refrigeration (set at 5° C. for 10 minutes at 2000 g.
Group 1 (Pilot Study, terminal blood collection): blood was collected from 3 animals at 1 hour post day 7 dose of Compound 18 nanosuspension.
Group 3 (TD Phase, terminal blood collection): blood was collected from 3 animals at 0.5 hour, 3 animals at 2 hours, 3 animals at 4 hours, and 3 animals at 8 hours post day 7 dose of Compound 18 nanosuspension.
Group 1 (Pilot Study): 3 animals were terminated at 1 hour post Day 7 dose of Compound 18 nanosuspension. Following blood collection and termination, ocular tissues (aqueous humor, vitreous humor, cornea, iris/ciliary body, lens, optic nerve, retina, sclera/choroid, and trabecular meshwork) were collected from each animal and the tissue weights were recorded. Note: sclera and choroid were collected together. Iris and ciliary body were collected together.
Group 3 (TD Phase): 3 animals were terminated at 0.5 hour, 3 animals at 2 hours, 3 animals at 4 hours, and 3 animals at 8 hours post Day 7 dose of Compound 18 nanosuspension. Following blood collection and termination, ocular tissues (aqueous humor, vitreous humor, cornea, iris/ciliary body, lens, optic nerve, retina, sclera/choroid, and trabecular meshwork) were collected from each animal and the tissue weights were recorded. Note: sclera and choroid were collected together. Iris and ciliary body were collected together.
Plasma and tissue samples from treated animals (Groups 1-3) were analyzed for Compound 18 and its metabolite Compound 4 concentrations by LC-MS/MS.
Pharmacokinetic analysis was conducted using WinNonlin Version 6.2.1 (Pharsight, Mountain View, Calif.), operating as a validated software system. Noncompartmental analysis was conducted using the extravascular administration model for ocular instillation dosing.
The peak plasma and ocular tissue concentration, time to achieve peak plasma and ocular tissue concentration, half-life, and area under the plasma and ocular tissue concentration-time curve (Cmax, Tmax, T1/2, and AUC) were calculated from the TD phase combined with the pilot study mean animal plasma and ocular tissue concentrations for each sampling time/dose group for Compound 18 and its metabolite Compound 4.
BA Assay: Quantitation Range 0.05 to 100 ng/mL for Compound 18, 0.15 to 100 ng/mL for Compound 4.
3. Pipet 50 μL of each type of pre-spiked ocular tissue samples (AH/VH) for QC samples, 50 μL of incurred aqueous humor, and vitreous humor sample (if applicable) into a 96 well plate.
Ocular Tissues Homogenate Preparation: Incurred rabbit ocular tissues were weighed in Genogrinder tubes (plastic tubes with small beads) at the time of removal from the animal and stored frozen (<−70° C.) until analysis. The rabbit incurred ocular tissues were thawed on wet ice. […]

[1] = TD Phase, Group 1, 1 h, individual animals
[2] = TD Phase, Group 1, 1 h, individual animals, BQL set to 0
[3] = TD Phase, Group 3, 0.5 h, individual animals
[4] = TD Phase, Group 3, 0.5 h, individual animals, BQL set to 0
[5] = TD Phase, Group 3, 2 h, individual animals
[6] = TD Phase, Group 3, 2 h, individual animals, BQL set to 0

For `CCCc1nn(C)c2c(=O)[nH]c(-c3cc(S(=O)(=O)N4CC(CCCO[N+](=O)[O-])C4)ccc3OCC)nc12` [Compound 18, 3-(1-((4-ethoxy-3-(1-methyl-7-oxo-3-propyl-6,7-dihydro-1H-pyrazolo[4,3-d]pyrimidin-5-yl)phenyl)sulfonyl)azetidin-3-yl)propyl nitrate], which AUC0-8 (Iris/Ciliary Body, Day 7, Compound 18 0.8 mg/kg ocular instillation once daily, Groups 1 and 3) is on record?
The AUC0-8 was 150 ng·h/g.

What about the “Compound 18 Vitreous Humor Conc.” value (TD Phase, Group 1, 1 h, Mean, BQL set to 0) of the same compound?
The value was “BQL (BQL = Below lower limit of quantitation (0.0500 ng/mL for Compound 18)”.

And the “Compound 18 Aqueous Humor Conc.” value [1]?
The value was “BQL (BQL = Below lower limit of quantitation (0.0500 ng/mL for Compound 18)”.

What about the “Compound 18 Plasma Conc.” value [1] of the same compound?
Its value is “BQL^a (BQL = Below lower limit of quantitation (0.0500 ng/mL for Compound 18) and 0.0581 ng/mL”.

And the “Compound 18 Vitreous Humor Conc.” value [1]?
Its value is “BQL (BQL = Below lower limit of quantitation (0.0500 ng/mL for Compound 18)”.

And the “Final Compound 18 Optic Nerve Conc.” value [1]?
Its value is 192 ng/g and 266 ng/g.

And the “Final Compound 18 Iris/Ciliary Body Conc.” value [2]?
The value was 0 ng/g and 18.7 ng/g and 302 ng/g.

What about the “Final Compound 18 Lens Conc.” value [2] of the same compound?
Its value is 0 ng/g.

What about the “Final Compound 18 Retina Conc.” value [2] of the same compound?
Its value is 6.24 ng/g and 20.2 ng/g and 27.8 ng/g.

And the “Compound 18 Lens Homogenate Conc.” value [1]?
The value was “BQL (BQL = Below lower limit of quantitation (0.0500 ng/mL for Compound 18)”.

And the “Compound 18 Iris/Ciliary Body Homogenate Conc.” value [1]?
Its value is “BQL (BQL = Below lower limit of quantitation (0.0500 ng/mL for Compound 18) and 0.934 ng/mL and 15.1 ng/mL”.

What about the “Compound 18 Optic Nerve Homogenate Conc.” value [1] of the same compound?
Its value is 9.59 ng/mL and 13.3 ng/mL.

And the “Compound 18 Retina Homogenate Conc.” value [1]?
Its value is 0.312 ng/mL and 1.01 ng/mL and 1.39 ng/mL.

What about the “Compound 18 Trahecular Meshwork Homogenate Conc.” value [1] of the same compound?
Its value is “BQL (BQL = Below lower limit of quantitation (0.0500 ng/mL for Compound 18)”.

And the “Compound 18 Aqueous Humor Conc.” value (TD Phase, Group 3, 0.5 h, Mean, BQL set to 0)?
Its value is “BQL (BQL = Below lower limit of quantitation (0.0500 ng/mL for Compound 18)”.

And the “Compound 18 Aqueous Humor Conc.” value [3]?
The value was “BQL^a (BQL = Below lower limit of quantitation (0.0500 ng/mL for Compound 18)”.

What about the “Compound 18 Plasma Conc.” value [3] of the same compound?
The value was 0.627 ng/mL and 0.0972 ng/mL and 0.0599 ng/mL.

And the “Compound 18 Vitreous Humor Conc.” value [3]?
Its value is “BQL^a (BQL = Below lower limit of quantitation (0.0500 ng/mL for Compound 18)”.

And the “Final Compound 18 Optic Nerve Conc.” value [3]?
The value was 116 ng/g and 30.4 ng/g and 183 ng/g.

And the “Final Compound 18 Sclera/Choroid Conc.” value [3]?
The value was 88.8 ng/g and 47.2 ng/g and 186 ng/g.

What about the “Final Compound 18 Iris/Ciliary Body Conc.” value [4] of the same compound?
Its value is 2.24 ng/g and 0 ng/g and 268 ng/g.

And the “Final Compound 18 Lens Conc.” value [4]?
Its value is 0 ng/g (2×) and 6.35 ng/g.

What about the “Final Compound 18 Retina Conc.” value [4] of the same compound?
The value was 20.2 ng/g and 29.8 ng/g.

What about the “Compound 18 Lens Homogenate Conc.” value [3] of the same compound?
The value was “BQL^1 (BQL = Below lower limit of quantitation (0.0500 ng/mL for Compound 18)”.

And the “Compound 18 Sclera/Choroid Homogenate Conc.” value (TD Phase, Group 3, 0.5 h, individual animals, homogenate dilution factor 8)?
Its value is 11.1 ng/mL and 5.90 ng/mL and 23.3 ng/mL.

What about the Cornea homogenate concentration [3] of the same compound?
Its Cornea homogenate concentration is “BQL^a (BQL = Below lower limit of quantitation (0.0500 ng/mL for Compound 18)”.

What about the “Compound 18 Iris/Ciliary Body Homogenate Conc.” value [3] of the same compound?
The value was 0.112 ng/mL and BQL^a (BQL = Below lower limit of quantitation (0.0500 ng/mL for Compound 18) and 13.4 ng/mL.

What about the “Compound 18 Optic Nerve Homogenate Conc.” value [3] of the same compound?
The value was 5.79 ng/mL and 1.52 ng/mL and 9.17 ng/mL.

And the “Compound 18 Retina Homogenate Conc.” value [3]?
The value was 1.01 ng/mL and 1.49 ng/mL.

What about the “Compound 18 Trahecular Meshwork Homogenate Conc.” value [3] of the same compound?
Its value is “BQL^a (BQL = Below lower limit of quantitation (0.0500 ng/mL for Compound 18)”.

What about the “Compound 18 Aqueous Humor Conc.” value (TD Phase, Group 3, 2 h, Mean, BQL set to 0) of the same compound?
Its value is “BQL (BQL = Below lower limit of quantitation (0.0500 ng/mL for Compound 18)”.

And the “Compound 18 Aqueous Humor Conc.” value [5]?
The value was “BQL (BQL = Below lower limit of quantitation (0.0500 ng/mL for Compound 18)”.

And the “Compound 18 Plasma Conc.” value [5]?
The value was “BQL (BQL = Below lower limit of quantitation (0.0500 ng/mL for Compound 18)”.

What about the “Compound 18 Vitreous Humor Conc.” value [5] of the same compound?
The value was “BQL (BQL = Below lower limit of quantitation (0.0500 ng/mL for Compound 18)”.

What about the “Final Compound 18 Optic Nerve Conc.” value [5] of the same compound?
The value was 24.4 ng/g and 1030 ng/g and 79.0 ng/g.

And the “Final Compound 18 Iris/Ciliary Body Conc.” value [6]?
The value was 1.27 ng/g and 15.4 ng/g and 0 ng/g.

And the “Final Compound 18 Lens Conc.” value [6]?
Its value is 0 ng/g.

And the “Final Compound 18 Retina Conc.” value [6]?
Its value is 31.5 ng/g and 69.4 ng/g and 3.40 ng/g.

And the “Compound 18 Lens Homogenate Conc.” value [5]?
The value was “BQL (BQL = Below lower limit of quantitation (0.0500 ng/mL for Compound 18)”.

What about the Cornea homogenate concentration [5] of the same compound?
Its Cornea homogenate concentration is “BQL (BQL = Below lower limit of quantitation (0.0500 ng/mL for Compound 18)”.

And the “Compound 18 Iris/Ciliary Body Homogenate Conc.” value [5]?
Its value is 0.0637 ng/mL and 0.772 ng/mL and BQL (BQL = Below lower limit of quantitation (0.0500 ng/mL for Compound 18).

What about the “Compound 18 Optic Nerve Homogenate Conc.” value [5] of the same compound?
Its value is 1.22 ng/mL and 51.5 ng/mL and 3.95 ng/mL.
